According to patent US20050124618A1, “Methods of modulating angiogenesis and cancer cell proliferation” (priority 2003, published 2005):
“Also recorded” adds a separate entry of the source.

Columns and labels:
HUVECs [1] = assay: HUVECs proliferation assay (CellTiter96 AQueous One); format: cell-based, human
Method: HUVECs were seeded onto a 96-well plate at 1×10^4 cells/well. […] Organic solvent concentration never exceeded 0.1% of total culture volume. […] 20 μl of Aqueous One reagent was added to the 100 μl medium in each well. The plates were incubated for 2 hours at 37° C. in a humidified incubator. Absorbance was recorded at 490 nm using a 96-well Bio Kinetics Reader EL340 (Bio-TEK, Winooski, Vt.). The data represent changes in percent absorbance of treated cultures compared with control cells. Three different experiments were carried out, and each point was determined in triplicate.

U251 human glioma cells = assay: U251 cell proliferation assay (cell counting); format: cell-based
Method: Culture Conditions: Cells were routinely maintained in DMEM (Invitrogen) supplemented with 10% heat-inactivated fetal bovine serum (FBS), penicillin (10 IU/ml), streptomycin (10 μg/ml) and 10% non-essential amino acids (all purchased from Invitrogen). Cells were maintained at 37° C. in a humidified incubator containing 5% CO2. They were grown in medium containing 10% FBS, which was then replaced with serum-free medium where U251 cells grow exponentially. Treatments were initiated one day after serum removal.
(§1) Cell Proliferation Assays: Proliferation studies were performed with cultures plated at a density that ensured exponential growth for at least 5 days. Growth medium was generally replaced by serum-free medium 24 hr after plating. Cells were treated with various concentrations of a given compounds for 24 or 48 hr as described in the Methods. […] Organic solvent never exceeded 0.1% of total culture volume. Cells were harvested by exposure to 0.05% trypsin/EDTA and counted using a hemocytometer.

HUVECs [2] = assay: Proliferation of normal HUVECs (comparison with U251); format: cell-based, human; settings: 10 μM HET0016, 48 hrs; DDMS concentration not given
Method: (§2) Mean values±SD from three separate experiments, each performed in triplicate, are presented. *** indicates p<0.001 from the respective control values.
as §1

[3] = test system: primary human keratinocytes; assay: Proliferation of primary human keratinocytes (comparison with U251); format: cell-based; settings: 10 μM HET0016, 48 hrs; DDMS concentration not given
Method: as §2, §1

9L rat gliosarcoma cells = assay: [3H]thymidine incorporation in 9L cells; format: cell-based; settings: 10 μM HET0016
Method: [^3H]Thymidine Incorporation Studies: Thymidine incorporation studies were performed with cells grown in 35-mm culture dishes. […] Palmitic acid and EtOH served as nonspecific fatty acid and vehicle controls, respectively. At the end of the pulse, the medium was aspirated and the cells rinsed twice with cold 1× phosphate buffered saline (PBS). The rinsed cultures were fixed by exposure to cold 5% trichloracetic acid overnight at 4° C., after which fixed cells were extracted as described previously (Scholler et al., Mol. Pharmacol. 45: 944-954, 1994). A second set of non-fixed dishes was treated with 0.05% trypsin/EDTA to estimate cell numbers. [^3H]thymidine was detected by scintillation counting and expressed as dpm/10^3 cells.

9L gliosarcoma tumors = assay: Growth of 9L gliosarcoma brain tumors in rats (tumor volume); format: in vivo, rat
Method: Tumor Implantation: Before implantation, 90% confluent 9L cells were trypsinized and centrifuged. The cell pellet was resuspended in DMEM+10% FBS and counted using a hemocytometer. The concentration of the 9L cells was adjusted to 1×10^4 cells/5 μl of medium. p The brain tumors were seeded by injecting the 9L cell suspensions into the frontal cerebral cortex of Fisher 344 rats that were purchased from Charles River Laboratories (Wilmington, Mass.) as follows. The rats were anesthetized with ketamine (80 mg/Kg, im) and Xylazine (13 mg/Kg), the head was immobilized in a stereotactic frame (David Kopf Instruments, Tujunga, Calif.) and the skull was exposed. A small hole was drilled in the skull 2 mm lateral and 2.5 mm anterior of the bregma, and 5 μl of the 9L gliosarcoma cell suspension were injected 3.5 mm into to cerebral cortex over a 5 min period using a 10 μl Hamilton (#2701) syringe attached to a 26 gauge needle. The hole was sealed with bone wax and the incisions were closed. […] The brains were removed and stored in 10% formalin. […]
Images of H&E stained sections containing tumor were captured using a SONY CCD camera using 2× objective. Using the AIS Image Analysis System (Imaging Research, St. Catherine, ON, Canada) software, the area of tumor in each section was manually outlined and measured in mm^2. […]

SMILES: CCCCc1ccc(N=CNO)c(C)c1 [HET0016, N-hydroxy-N′-(4-butyl-2 methylphenyl) formamidine]
- effect on the proliferative response of HUVECs to VEGF (HUVECs [1]; 250 ng/ml VEGF + 10 μM HET0016, 24 hours): abolished; also recorded: blocked the known proliferative response to VEGF; also recorded: blocks the mitogenic activity of VEGF
- effect on basal proliferation rate of HUVECs (HUVECs [1]; 10 μM HET0016): did not alter basal proliferation rate
- effect on EGF-induced proliferation of U251 cells (U251 human glioma cells; 200 ng/ml EGF + 10 μM HET0016, 48 hr): inhibited; also recorded: inhibits the effects of EGF
- inhibition of proliferation of U251 cancer cells (FIG. 17) (U251 human glioma cells; 96-well plates, HET0016 for 48 hrs): about 50%
- inhibition at 10 µM (U251 human glioma cells; Homo sapiens, U-251, 48 h): ~60%
- concentration dependence of inhibition of U251 proliferation (U251 human glioma cells; various concentrations): suppressed by HET0016 in a concentration-dependent manner
- effect on basal growth or proliferation of normal HUVECs (HUVECs [2]): Neither DDMS or HET0016 had any effect; also recorded: had no effect on the basal growth or proliferation; also recorded: had no effect on the proliferation
- effect on basal growth or proliferation of primary human keratinocytes [3]: Neither DDMS or HET0016 had any effect; also recorded: had no effect on the basal growth or proliferation; also recorded: had no effect on the proliferation
- reduction of thymidine incorporation in 9L cultures (9L rat gliosarcoma cells): 60%
- reduction of the volume of the brain tumor compared to control animals (9L gliosarcoma tumors; 9L cells in rat forebrain, HET0016 10 mg/kg/day sc for 15 days, b179 prints 1 mg/Kg/day, ip, about 2 weeks): 80%
- appearance of rats and tumor size at necropsy (9L gliosarcoma tumors; 17 days after implantation of the tumor): looked healthier; also recorded: much smaller tumor at necropsy
